Measurements reported in US10745355B2, “Anti-cancer compounds” (THE UNIVERSITY OF SYDNEY, priority 2015, dated 2020).

Molecular target: CSK (Homo sapiens, UniProt P41240)
Assay: Kinase profiling (ProQinase 33PanQinase Activity Assay), CSK
Format: biochemical
Conditions: read-out: residual activity, CSK
Experimental: The kinase profiling of compound 1-08 at 10 and 50 μM was performed by ProQinase GmbH (Freiburg, Germany). A radiometric protein kinase assay (^33PanQinase® Activity Assay) and the non-radiometric ADP-Glo™ Assay (Promega, Madison, Wis., USA) were used for measuring kinase activity of 387 protein kinases and 13 lipid kinases, respectively. The results are shown in Table 3 (only the top 10 kinases are listed, and the selectivity score describes the portion of kinases inhibited more than 50% in relation to all tested kinases).

remaining activity at 10 µM (10 μM compound): 89%
remaining activity at 50 µM (50 μM compound): 21%
SMILES: O=C(CCCc1ccc(-c2cnc3ccccc3c2)cc1)Nc1ccc(O)cc1 [Compound 1-08, N-(4-hydroxyphenyl)-4-(4-(quinolin-3-yl)phenyl)butanamide]
